Data as given in publication PMC9079923, “Trifluoromethylated proline analogues as efficient tools to enhance the hydrophobicity and to promote passive diffusion transport of the L-prolyl-L-leucyl glycinamide (PLG) tripeptide” (RSC Advances, 2018).
Residues, ends and D or L forms follow the SMILES beside them.

Experiments:
[1] = Parallel artificial membrane permeability assay (PAMPA), in vitro model of the BBB
Experimental: (§1) We then decided to evaluate the ability of our fluorinated PLG analogues 2 and 3 to cross the BBB through passive diffusion. […] The rate of permeation can be determined by the effective permeability (Pe) as well as the rate of transport values. The membrane retention value can also be obtained and reflects the strength of the interaction between the lipids that mimic the membrane and the peptide.
(§2) The buffer solution was prepared from a commercially concentrated one, supplied by pION. Following the manufacturer's instructions, system solution was adjusted to pH 7.4 using a 0.5 M NaOH solution. The compounds to be analyzed were dissolved in a mixture of buffer solution with 20% of 1-propanol used as co-solvent to ensure their solubility. The PAMPA sandwich was separated, and the donor wells were filled with 195 μL of each compound. A magnetic stirrer was placed in each well. The acceptor plate was put into the donor plate, ensuring that the underside of the membrane was in contact with the buffer. Then, 4 μL of a mixture of phospholipids from a porcine polar brain extract (20 mg mL^−1) in dodecane (composition: 12.6% phosphatidylcholine (PC), 33.1% phosphatidylethanolamine (PE), 18.5% phosphatidylserine (PS), 4.1% phosphatidylinositol (PI), 0.8% phosphatidic acid and 30.9% of other compounds) was added to the filter of each well, followed by 200 μL of buffer solution. The plate was then covered and incubated at room temperature in a saturated humidity atmosphere for 4 h under orbital agitation at 25 μm of unstirred water layer (UWL). After this period, the solution from the donor and acceptor plates was transferred to the UPLC vials. 100 μL of each acceptor and donor samples and 100 μL of t0 samples were injected into the UPLC apparatus.
(§3) Membrane retention was also calculated as the difference of product at t0 and after 4 h in the donor and acceptor compartments.

[2] = Isocratic hydrophobicity index φ0 by RP-HPLC; type: physicochemical; settings: RP-C18
From the text: The hydrophobicity of the fluorinated analogues of PLG has then been assessed and compared to the native PLG 1 in order to investigate the specific effect imparted by the CF3 group. […] It is based on the measurement of the isocratic hydrophobicity index (φ0) which is defined as the percentage (by volume) of organic solvent required to achieve an equal distribution of compound between the polar mobile and apolar stationary phases. Thus, higher is the φ0 value, more hydrophobic is the compound. The method involves the measurement of the logarithm of retention factor k (log k) values by reversed-phase high-performance liquid chromatography (RP-HPLC) using various organic-phase concentrations in the mobile phase (in our case, the acetonitrile is used). By plotting the log k values as a function of the acetonitrile concentration, the φ0 value can be obtained from the slope and the intercept of the linear regression (φ0 = −intercept/slope). A good correlation between the φ0 and the log P values was shown.[15] The hydrophobicity index of our peptides was first measured at pH 7. […] The φ0 values were then measured at pH 2 to investigate the impact of the possible ionic form of the PLG peptides 1–3 on the hydrophobicity parameter. The lower φ0 value observed for the native PLG 1 is consistent with its expected polar ionic state (entry 1, Table 1). […] Only a slight decrease in the φ0 value is observed for the (S,S,S)-3 (entry 4, Table 1), that of the (R,S,S)-3 diastereomer remaining almost unchanged (entry 5, Table 1).
An Agilent 1200 series high-performance liquid chromatograph coupled to an ELSD detector was used. The reversed-phase HPLC measurements were carried out on a Zorbax® RX-C18 analytical column (4.6 × 250 mm, 5 μm). The mobile phase was 50 mM ammonium acetate and HPLC grade acetonitrile as organic modifier (pH 7.0) or TFA 0.1% buffer aqueous solution and 0.1% TFA HPLC grade acetonitrile (pH 2). The mobile phase flow rate was ranging from 0.1–1.0 mL min^−1. The dead time (t0) was measured by injecting sodium nitrate together with the sample at a concentration of 10 mM. The samples were dissolved at 1 mg/1 mL in water. Few drops of acetonitrile were added when the dissolution of the peptide was incomplete. The logarithm of retention factor k (log k) values were obtained according to the eqn (1):1 [drawing 1] where tR is the retention time of the compound and t0 the retention time of the unretained sodium nitrate solute.
The log k values were plotted as a function of the acetonitrile concentration. The slope (S) and the intercept (log kw) values were calculated from at least three concentrations of acetonitrile. The correlation coefficients of the linear fit were higher than 0.99. The isocratic hydrophobicity index φ0 was calculated according to the eqn (2):2 φ0 = −log kw/Swhere log kw is the log k value extrapolated to the 0% acetonitrile concentration.

[3] = PAMPA, pH 7.4
Experimental: as §1, §2, §3

[4] = design: method as in PMID 12667689; settings: cited from earlier work
[5] = pH 7.4, Effective permeability class according to the empirical BBB permeation prediction, pH 7.4, classes by ref 19
[6] = pH 7.4, Pe (× 10^6), effective permeability, pH 7.4, 4 h, 5 mM, mean ± SD
[7] = pH 7, 50 mM ammonium acetate / acetonitrile

In the case of CC(C)C[C@H](NC(=O)[C@@]1(C(F)(F)F)CCCN1)C(=O)NCC(N)=O [(R,S)-2, (R)-α-CF3-Pro-L-Leu-Gly-NH2], the “Interaction with / retention in the membrane (in words)” value (“Interaction with / retention” for short) ([1]; pH 7.4, 4 h) is reported as “strong interaction with the membrane”, the Membrane retention ([1]; pH 7.4, 4 h) is reported as 30% and the “Transport (%) (4 h)” value ([1]; pH 7.4, 4 h, 5 mM, mean ± SD) is reported as 0.65 ± 0.06%. The Papp [1, 5] was < 2 ×10⁻⁶ cm/s and the Papp [1, 6] was 0.31 ± 0.03 ×10⁻⁶ cm/s.
With CC(C)C[C@H](NC(=O)[C@]1(C(F)(F)F)CCCN1)C(=O)NCC(N)=O [(S,S)-2] the “Interaction with / retention” value ([1]; pH 7.4, 4 h) was “strong interaction with the membrane”, the Membrane retention ([1]; pH 7.4, 4 h) was 50% and the “Transport (%) (4 h)” value ([1]; pH 7.4, 4 h, 5 mM, mean ± SD) was 5.34 ± 0.08%. The Papp [1, 5] was 2 to 4 ×10⁻⁶ cm/s and the Papp [1, 6] was 2.68 ± 0.04 ×10⁻⁶ cm/s.
With CC(C)C[C@H](NC(=O)[C@@H]1CCCN1)C(=O)NCC(N)=O [compound 1, L-prolyl-L-leucyl glycinamide] (H-Pro-Leu-Gly-NH2) the “φ0 (isocratic hydrophobicity index)” value ([2]; pH 2, TFA 0.1% / acetonitrile) was 9,2, the “φ0 (isocratic hydrophobicity index)” value [2, 7] was 12,3 and the “Permeability / ability to cross the membrane by passive diffusion (in words)” value [3] was “very negligible”. The “Crossing of the blood–brain barrier (BBB)” value [4] was “known to cross the blood–brain barrier” and the “Interaction with / retention” value ([1]; pH 7.4, 4 h) was “no peptide was retained in the membrane”.
For “(2R,4S)-Ser(Ψ^CF^3,HPro)-L-Leu-Gly-NH2 [(R,S,S)-3]”, the “φ0 (isocratic hydrophobicity index)” value ([2]; pH 2, TFA 0.1% / acetonitrile) was 30,4 and the “φ0 (isocratic hydrophobicity index)” value [2, 7] was 30,8.
In the case of “(2S,4S)-Ser(Ψ^CF^3,HPro)-L-Leu-Gly-NH2 [(S,S,S)-3]”, the “φ0 (isocratic hydrophobicity index)” value ([2]; pH 2, TFA 0.1% / acetonitrile) is reported as 25,3 and the “φ0 (isocratic hydrophobicity index)” value [2, 7] is reported as 27,5.
